Measurements taken from patent publication US4317775A (Hoffmann-La Roche Inc., priority 1980, dated 1982).
In brackets after ≈: the same amount, converted by molar mass. Several values for one entry are separate records, joined by “and”; a condition that tells them apart may be missing. Equal values may be shown once. Where a name gives a salt, the structure may show the parent alone. Read-outs that look alike come from different tables or passages of the source.

Columns and labels:
[1] = system: Streptococcus pneumoniae I; assay: In vitro activity (MIC/MBC), Streptococcus pneumoniae I; format: cell-based; details: MBC, read-out: Minimum Inhibitory Concentration (MBC)
Excerpt: (§1) MIC is the Minimum Inhibitory Concentration. MBC is the Minimum Bactericidal Concentration.
(§2) Results reported in Table 3(a) are reported as MIC defined above and results reported in Table 3(b) are reported as MBC defined above.

Escherichia coli = assay: In vitro activity (MIC/MBC), Escherichia coli; format: cell-based
Excerpt: as §1, §2

Klebsiella pneumoniae = assay: In vitro activity (MIC/MBC), Klebsiella pneumoniae; format: cell-based; details: for MIC: read-out: Minimum Inhibitory Concentration (MIC)
Excerpt: as §1, §2

[2] = system: Salmonella schottmuelleri; assay: In vitro activity (MIC/MBC), Salmonella schottmuelleri; format: cell-based
Excerpt: as §1, §2

Salmonella typhosa = assay: In vitro activity (MIC/MBC), Salmonella typhosa; format: cell-based; details: Salmonella enterica
Excerpt: as §1, §2

Proteus vulgari = assay: In vitro activity (MIC/MBC), Proteus vulgari; format: cell-based; details: for MBC: read-out: Minimum Inhibitory Concentration (MBC); for MIC: read-out: Minimum Inhibitory Concentration (MIC)
Excerpt: as §1, §2

[3] = system: Streptococcus pneumonia II; assay: In vitro activity (MIC/MBC), Streptococcus pneumonia II; format: cell-based; details: Streptococcus pneumoniae
Excerpt: as §1, §2

E. coli = assay: In vivo activity against systemic infection in mice, E. coli; details: in mg/kg
Excerpt: (§3) The PD50 is the protective dose for 50% of the animals treated against a challenge organism.

K. pneumoniae = assay: In vivo activity against systemic infection in mice, K. pneumoniae; details: in mg/kg
Excerpt: as §3

S. aureus = assay: In vivo activity against systemic infection in mice, S. aureus; details: in mg/kg
Excerpt: as §3

P. mirabilis = assay: In vivo activity against systemic infection in mice, P. mirabilis; details: in mg/kg
Excerpt: as §3

P. aeruginosa = assay: In vivo activity against systemic infection in mice, P. aeruginosa
Excerpt: as §3

Streptococcus pyogenes = assay: In vitro activity (MIC/MBC), Streptococcus pyogenes; format: cell-based
Excerpt: as §1, §2

Staphylococcus aureus = assay: In vitro activity (MIC/MBC), Staphylococcus aureus; format: cell-based
Excerpt: as §1, §2

S. pyogenes = assay: In vivo activity against systemic infection in mice, S. pyogenes
Excerpt: as §3

S. pneumoniae I = assay: In vivo activity against systemic infection in mice, S. pneumoniae I
Excerpt: as §3

S. pneumoniae II = assay: In vivo activity against systemic infection in mice, S. pneumoniae II
Excerpt: as §3

in vivo = details: mouse
[4] = read-out: Minimum Inhibitory Concentration (MIC)
[5] = MBC, read-out: Minimum Inhibitory Concentration (MBC)

Work on CC1(C)S[C@@H]2[C@H](NC(=O)[C@H](N)c3ccc(O)cc3)C(=O)N2[C@H]1C(=O)O [Amoxicillin, amoxicillin, reference compound] yielded an MBC [1] of 0.024 µg/mL (≈ 0.0657 µM), an MIC (Escherichia coli; [4]) of 3.12 µg/mL (≈ 8.55 µM) and an MIC (Escherichia coli; read-out: Minimum Inhibitory Concentration (MIC), Escherichia coli) of 6.25 µg/mL (≈ 17.1 µM). It also gave an MIC (Klebsiella pneumoniae) of 0.39 µg/mL (≈ 1.07 µM), an MBC ([2]; MBC, Salmonella schottmuelleri, read-out: Minimum Inhibitory Concentration (MBC)) of 0.78 µg/mL (≈ 2.13 µM) and an MIC ([2]; Salmonella, read-out: Minimum Inhibitory Concentration (MIC)) of 0.78 µg/mL (≈ 2.13 µM). For the same compound, the MBC (Salmonella typhosa; read-out: Minimum Inhibitory Concentration (MBC), MBC, Salmonella typhosa) was 0.39 µg/mL (≈ 1.07 µM), the MIC (Salmonella typhosa; read-out: Minimum Inhibitory Concentration (MIC), Salmonella typhosa) was 0.39 µg/mL (≈ 1.07 µM) and the MBC (Proteus vulgari) was 0.78 µg/mL (≈ 2.13 µM). It also gave an MIC (Proteus vulgari) of 1.56 µg/mL (≈ 4.27 µM), an MBC [3, 5] of 0.049 µg/mL (≈ 0.134 µM) and an MIC [3, 4] of 0.024 µg/mL (≈ 0.0657 µM). The PD50 (E. coli; oral) was 14.1 and 18.5 and 19.3 and 13.1, the PD50 (E. coli; subcutaneous) was 10 and 5.9 and 7.3 and 6.8 and the PD50 (K. pneumoniae; subcutaneous) was 3.6 and 5 and 3.7. For the same compound, the PD50 (S. aureus; oral) was 0.5 and 0.6, the PD50 (S. aureus; subcutaneous) was less than 0.2 and the PD50 (P. mirabilis; oral) was 1.8 and 1.1. The PD50 (P. mirabilis; subcutaneous) was < 0.5 and 0.6, the PD50 (P. aeruginosa; oral) was greater than 200 mg/kg and the PD50 (P. aeruginosa; subcutaneous) was greater than 200 mg/kg. The LD50 (Acute toxicity in mice; mice, i.p.) was 3535 mg/kg and 3150 mg/kg, the LD50 (Acute toxicity in mice; mouse, in vivo, ip, LD50, mice) was 3140 mg/kg and the LD50 (Acute toxicity in mice; mouse, in vivo, po, LD50, mice) was greater than 10000 mg/kg. The LD50 (Acute toxicity in mice; mouse, in vivo, sc, LD50, mice) was greater than 10000 mg/kg.
In the case of CC1(C)S[C@@H]2[C@H](NC(=O)[C@H](NC3CCCS3)c3ccc(O)cc3)C(=O)N2[C@H]1C(=O)O (relative stereo) [Compound III, {2S-[2α,5α,6β(S*)]}-6-{[tetrahydro-2-thienylamino-(4-hydroxyphenyl)acetyl]amino}-3,3-dimethyl-7-oxo-4-thia-1-azabicyclo[3.2.0]heptane-2-carboxylic acid sodium salt], the MBC (Streptococcus pyogenes; [5]) is reported as greater than 8.88 µg/mL, the MIC (Streptococcus pyogenes; [4]) is reported as 0.554 µg/mL and the MBC (Staphylococcus aureus; [5]) is reported as 0.138 µg/mL. The MIC (Staphylococcus aureus; [4]) was 0.138 µg/mL, the MBC (Escherichia coli; [5]) was 4.44 µg/mL and the MIC (Escherichia coli; [4]) was 4.44 µg/mL. It also gave an MBC (Klebsiella pneumoniae; [5]) of 1.11 µg/mL, an MIC (Klebsiella pneumoniae) of 0.554 µg/mL and an MBC (Proteus vulgari) of 0.554 µg/mL. It also gave an MIC (Proteus vulgari) of 0.554 µg/mL, a PD50 (S. pyogenes; oral) of 6.3 mg/kg and a PD50 (S. pyogenes; subcutaneous) of 4.1 mg/kg. It also gave a PD50 (S. pneumoniae I; oral) of 4.7 mg/kg, a PD50 (S. pneumoniae I; subcutaneous) of 2.5 mg/kg and a PD50 (E. coli; oral) of 18.7. It also gave a PD50 (E. coli; subcutaneous) of 19.4, a PD50 (K. pneumoniae; oral) of 15.5 and a PD50 (K. pneumoniae; subcutaneous) of 5.3. For the same compound, the PD50 (S. pneumoniae II; oral) was 3.2 mg/kg, the PD50 (S. pneumoniae II; subcutaneous) was 3.2 mg/kg and the PD50 (P. mirabilis; oral) was 3.8. The PD50 (P. mirabilis; subcutaneous) was 2.5, the PD50 (P. aeruginosa; oral) was greater than 142 mg/kg and the PD50 (P. aeruginosa; subcutaneous) was greater than 142 mg/kg. It also gave an LD50 (in vivo; ip) of 668 mg/kg, an LD50 (in vivo; po) of 558 mg/kg and an LD50 (in vivo; sc) of 598 mg/kg.
